The target in experiment [1] is T1, P2Y12 receptors (Mus musculus, UniProt Q9CPV9). The settings on record: both antigen doses (3 and 10 μg Der f).
Procedure: Role of P2Y12 receptors in inflammation mediated by dust mite allergen. C57BL/6 mice were treated intranasally with the indicated dose of Dermatophagoides farinae (Der f) extract twice weekly for 3 weeks. Animals were euthanized 24 h after the last dose. […] Effect of clopidogrel treatment on bronchovascular inflammation and goblet cell metaplasia in C57BL/6 mice subjected to intranasal challenge with the indicated doses of an extract from the house dust mite. Results are the mean±SEM from 5 mice/group. The experiment was repeated three times with similar results.
To determine whether pharmacologic blockade of P2Y12 receptors altered pulmonary inflammatory responses in a more physiologic model of pulmonary inflammation, C57BL/6 mice were administered an extract of house dust mite Dermatophagoides farinea (Der f) intranasally twice weekly for three weeks, with or without clopidogrel treatment. Two different doses of Der f were used to elicit moderate (at 3 μg) and severe (at 10 μg) inflammation, respectively.
For Der f-mediated pulmonary inflammation, 6-8 week old C57BL/6 mice were lightly anaesthetized and received either 3 or 10 μg of Der f extract (Greer Labs) on days 0, 3, 7, 10, 14 and 17. Some mice received clopidogrel throughout the duration of the experiment. Mice were euthanized 24 h after the last intranasal instillation.
2.5 μm thick glycolmethacrylate sections were stained with H&E for general morphologic examination. […] The extent of cellular infiltration in the bronchovascular bundles was evaluated without knowledge of the particular treatment and was categorized arbitrarily as grade 0=no inflammation, grade 1=mild inflammation, grade 2=moderate inflammation, grade 3=severe inflammation. 15 bronchovascular bundles of each mouse were evaluated. […] The length of basal lamina of corresponding bronchus was measured by Image J (NIH image analysis software). […] The data were expressed as the average of goblet cell counts stained in each bronchus in each section per mm bronchial basal lamina.
The test system of a further experiment is mouse CD42b (GPIbα). The experiment is described as follows: Platelet depletion in sensitized mice given LTE4 and low-dose OVA. The settings on record: in vivo. How it is done: (§1) FIG. 6. […] Each antibody (Ab) was diluted in 50 μl of sterile saline. […] 6A. PAS stains of the lungs of representative mice treated with isotype control (top) or with an anti-CD42 platelet-depleting antibody (bottom). 6B. Inflammation (top) and goblet cell metaplasia (bottom) in the lungs of mice treated with the indicated LT and antibody. A cohort of mice was treated with clopidogrel as indicated. Results in 6B are from a single experiment with 5 mice per group. […] 6C. […] Results are from a single experiment performed three times on different donors.
(§2) Platelets accumulate in the lungs of asthmatic individuals (Jeffery, P. K., et al. 1989. Am. Rev. Respir. Dis. 140:1745-1753), and are also recruited to the lungs of ovalbumin sensitized and challenged mice by an IgE-dependent mechanism (Pitchford, S. C., et al. 2008. Am. J. Respir. Crit. Care Med. 177:604-612).

The target in experiment [2] is T1, P2Y12 receptors. The experiment is described as follows: Clopidogrel effect on LTE4-mediated amplification of OVA-induced pulmonary inflammation. It counts as in vivo. The arrangement: from tissue; host or cells: whole animal: BALB/c (OVA model) and C57BL/6 (Der f model) mice. As to the method:
FIG. 4. […] 4A. […] Clopidogrel (500 μg/ml) was added to the drinking water of the indicated groups of mice for 72 h before the first intranasal dose of LTs, and was maintained throughout the treatment. Results are mean±SEM from at least 9 mice in each group. The experiments were repeated three times with similar results. 4B. PAS stains (left column) from representative mice in the indicated groups showing the effect of clopidigrel on goblet cell metaplasia. Higher magnification images of H & E stains (right) from the same animals showing cellular characteristics of the bronchovascular infiltrates. 4C. Effect of clopidogrel administration on the steady-state expression of IL-13 and MUC5AC mRNA as determined by real-time PCR of whole lung RNA extracted 24 h after the last OVA challenge of the indicated groups. Data are mean±SEM from 4-5 mice/group from a single experiment. Results in a second experiment were similar 4D-4F. […] 4D. Total cell numbers (top), percentages of eosinophils (middle), and total numbers of eosinophils in BAL fluid recovered 24 h after the last challenge with OVA. 4E. Goblet cell metaplasia (top) and representative PAS stains (bottom) from wild-type and p2ry12^−/− mice subjected to the same protocol. 4E. Inflammation scores from the same mice. Data in 4D-4F are from 4 mice per group. Results in a second experiment were similar 4G. BALB/c Cysltr1/Cysltr2^−/− mice and age-matched WT controls were subjected to the same protocol as the p2ry12^−/− mice. Total cell numbers (top), percentages of eosinophils (middle), and total numbers of eosinophils in BAL fluid recovered 24 h after the last challenge with OVA. Results are from 6 mice per group. Three experiments were performed with similar results. 4H. Goblet cell numbers (top) and representative PAS stains (bottom). 4I. Quantitative assessment of bronchovascular inflammation as determined by H & E stains. Results are from 6 mice/group.
FIG. 5. Effect of clopidogrel on LTE4-mediated amplification of pulmonary inflammation. 5A. […] The indicated mice were treated with clopidogrel for 72 h before the first dose of leukotriene. Results are mean±SEM from a minimum of 9 mice in each group. 5B. PAS stains (left column) from representative mice in the indicated groups showing the effect of clopidigrel on goblet cell metaplasia. Higher magnification images of H & E stains (right) from the same animals showing cellular characteristics of the bronchovascular infiltrates. 5C. Effect of clopidogrel administration on the steady-state expression of IL-13 and MUC5AC mRNA as determined by real-time PCR of whole lung RNA extracted 24 h after the last OVA challenge of the indicated groups. Data are mean±SEM from 4-5 mice/group. […]

Another experiment concerns the target human P2Y12 (Homo sapiens, UniProt Q9H244). The experiment is described as follows: Binding of cys-LTs to membranes of CHO cells stably expressing the human P2Y12 receptor. The arrangement: polyhistidine (HIS) tag (C); expressed in transfected cells. From the text: A P2Y12 receptor cDNA was amplified by reverse transcriptase polymerase chain reaction (RT-PCR) from RNA extracted from primary hMCs and cloned into a mammalian expression vector. Expression was confirmed by detection of a histidine (HIS) tag by flow cytometry. Another cohort of CHO cells were stably transfected with a P2Y12 receptor construct in reverse orientation as a negative control. […] The cys-LT-induced ERK activation blocked by pre-treatment of the cells with pertussis toxin (PTX), was attenuated by treatment with the P2Y12 receptor-selective antagonist 2-methylthioadenosine monophosphate (2-MesAMP) (FIG. 1C), and was resistant to MK571, an inhibitor that blocks CysLT1R and some P2Y receptors (Mamedova, L., et al. 2005. Biochem. Pharmacol. 71:115-125). […] These responses were resistant to PTX and 2-MesAMP, and susceptible to MK571 in the case of the CysLT1R transfectants.
A human P2Y12 receptor cDNA was amplified by 30 cycles of PCR from reverse-transcribed total RNA extracted from primary cord blood hMCs. The primer sequences were 5′-[…] (SEQ ID NO: 1) and 3′-[…] (SEQ ID NO: 2). The fragment was cloned into a TA vector (INVITROGEN™). After verifying the nucleotide sequence, the fragment was subcloned into the multiple cloning site of the expression vector pEF1/His B, encoding a C-terminal polyhistidine (HIS) tag. A plasmid expressing the P2Y12 receptor construct in the forward orientation were transfected into CHO cells using Fugene HD reagent according to manufacturer's protocol. A construct in the reverse sequence was transfected in parallel as a negative control. […]
[^3H] […] Protein concentration was determined using Biorad Protein Assay Kit. […] The residual membrane-associated [^3H] on the filter was determined in 2 ml scintillation fluid by beta counter (Perkin Elmer). For [^3H]ADP, specific binding was determined by subtracting the amount of [^3H] bound in the presence of 100 μM 2-MesADP from total binding.

For experiment [3], the system named is CHO cells expressing CysLT1R, CysLT2R, or P2Y12 receptors. The experiment is described as follows: Calcium flux in Fura-2-AM-loaded CHO transfectants. It counts as cell-based, human. The note with it: LTE4 500 nM, ADP 100 μM; ADP response reflects endogenous P2Y receptors. For orientation: A change in cytosolic calcium serves as a functional read-out for many receptors and channels.

The subject of another experiment is human blood platelets. The experiment is described as follows: Platelet activation, cytofluorographic detection of P-selectin (CD62P). It counts as cell-based. The settings on record: ADP 100 μM or LTE4 1 μM, 10 min. How it is done:
as §1, §2

The test system of a further experiment is P2Y receptor signaling. The note with it: mouse, in vivo; cited from earlier work.
Another experiment concerns the target T2, 5-LO (Homo sapiens, UniProt P09917).
T2 sequence (P09917 1-674): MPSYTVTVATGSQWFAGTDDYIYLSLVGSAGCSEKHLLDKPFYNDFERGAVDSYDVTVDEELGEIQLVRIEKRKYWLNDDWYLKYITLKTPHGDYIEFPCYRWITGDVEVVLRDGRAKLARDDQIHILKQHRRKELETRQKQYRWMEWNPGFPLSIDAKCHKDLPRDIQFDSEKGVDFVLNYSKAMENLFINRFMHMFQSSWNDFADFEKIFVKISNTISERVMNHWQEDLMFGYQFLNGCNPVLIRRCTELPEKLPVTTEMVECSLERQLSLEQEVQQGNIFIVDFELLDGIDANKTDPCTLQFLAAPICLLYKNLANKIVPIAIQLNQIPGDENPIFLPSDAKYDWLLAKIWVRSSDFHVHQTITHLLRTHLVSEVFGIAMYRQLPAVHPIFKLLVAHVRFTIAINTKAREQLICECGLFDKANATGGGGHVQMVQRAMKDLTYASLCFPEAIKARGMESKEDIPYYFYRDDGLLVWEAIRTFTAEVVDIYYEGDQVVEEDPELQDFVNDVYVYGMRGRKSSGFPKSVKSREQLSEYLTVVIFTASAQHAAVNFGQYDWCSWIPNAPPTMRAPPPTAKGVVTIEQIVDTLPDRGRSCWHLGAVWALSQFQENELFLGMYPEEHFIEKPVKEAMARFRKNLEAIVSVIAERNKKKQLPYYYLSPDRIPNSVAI
The settings on record: cited from earlier work.

Setting [4] is: clopidogrel 500 μg/ml in drinking water.

T1 sequence (Q9CPV9 whole entry): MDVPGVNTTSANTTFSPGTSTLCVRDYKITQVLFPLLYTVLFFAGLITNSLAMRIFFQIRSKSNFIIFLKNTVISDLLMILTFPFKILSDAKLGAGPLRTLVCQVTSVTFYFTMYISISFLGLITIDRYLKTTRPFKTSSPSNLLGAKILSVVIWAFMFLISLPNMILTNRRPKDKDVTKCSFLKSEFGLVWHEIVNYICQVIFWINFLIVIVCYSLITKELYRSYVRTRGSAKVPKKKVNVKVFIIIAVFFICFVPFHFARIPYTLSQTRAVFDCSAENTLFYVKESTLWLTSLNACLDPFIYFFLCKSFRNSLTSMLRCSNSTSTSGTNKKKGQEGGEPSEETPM
Sequence of human P2Y12 (Q9H244 whole entry): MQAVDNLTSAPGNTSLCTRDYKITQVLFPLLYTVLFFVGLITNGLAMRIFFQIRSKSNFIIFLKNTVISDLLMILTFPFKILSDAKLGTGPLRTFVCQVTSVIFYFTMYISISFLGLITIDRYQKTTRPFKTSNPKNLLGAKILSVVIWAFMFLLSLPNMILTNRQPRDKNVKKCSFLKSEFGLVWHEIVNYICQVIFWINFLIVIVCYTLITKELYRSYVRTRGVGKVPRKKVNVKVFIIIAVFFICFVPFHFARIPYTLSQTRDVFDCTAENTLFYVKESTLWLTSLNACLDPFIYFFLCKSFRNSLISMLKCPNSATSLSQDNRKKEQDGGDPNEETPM

Consider `COC(=O)C(c1ccccc1Cl)N1CCc2sccc2C1` (stereo not drawn) [clopidogrel, methyl alpha-5 (4,5,6,7-tetrahydro (3,2-c)thienopyridyl)(2-chlorophenyl)-acetate], for which, on P2Y12 receptors [1], the “attenuation of BAL fluid eosinophilia” value is given as around 75%, the goblet cell metaplasia result is reported as “significant reductions” and the pulmonary inflammation result is “significant reductions”. Further, in the experiment with mouse CD42b (GPIbα), the “LTE4-mediated expression of mRNA encoding IL-13 and MUC5AC” value is on record as “sharply reduced”; the “combination of platelet depletion with clopidogrel” value is recorded as “not additive”. For the same compound, at P2Y12 receptors [2] (setting [4]), the “LTE4-induced potentiation of goblet cell metaplasia” value was “complete lack of LTE4-induced potentiation” and the “LTE4-induced potentiation of inflammation” value was “complete lack of LTE4-induced potentiation”. Besides, at P2Y12 receptors [2] (whole lung RNA 24 h after last OVA challenge), the “lung expression of IL-13 and MUC5AC mRNA (real-time PCR)” value is listed as “substantially suppressed the expression of both”.

Consider `CCCCC/C=C\C\C=C/C=C/C=C/[C@@H](SC[C@H](NC(=O)CC[C@H](N)C(=O)O)C(=O)NCC(=O)O)[C@@H](O)CCCC(=O)O` [LTC4], for which the “binding to membranes of the transfectants” value on human P2Y12 is listed as “also bound”.

With `Nc1ncnc2c1ncn2[C@@H]1O[C@H](COP(=O)(O)OP(=O)(O)O)[C@@H](O)[C@H]1O` [ADP, adenosine diphosphate], the calcium flux result in experiment [3] is reported as “did exhibit a response”. In addition, the “CD62P expression by platelets” value in the experiment with human blood platelets is listed as “elicited CD62P expression”.

As for `Cc1ccc(C(=O)Nc2ccc(S(=O)(=O)O)c3cc(S(=O)(=O)O)cc(S(=O)(=O)O)c23)cc1NC(=O)c1cccc(NC(=O)Nc2cccc(C(=O)Nc3cc(C(=O)Nc4ccc(S(=O)(=O)O)c5cc(S(=O)(=O)O)cc(S(=O)(=O)O)c45)ccc3C)c2)c1` [suramin], in the experiment on P2Y receptor signaling, the “allergen-induced pulmonary inflammation and AHR” value is on record as “dramatically inhibited”.

In the case of `CC(c1cc2ccccc2s1)N(O)C(N)=O` (stereo not shown) [zileuton], the “block of cys-LT generation in vivo” value on 5-LO was around 50%.

(Values after patent publication US8299097B2, “Methods for treating inflammatory disorders” (The Brigham and Women's Hospital, Inc., priority 2008, dated 2012).)
